Data: patent US20180271870A1, “Compositions and Methods for Immune Therapy” (Augusta University Research Institute, Inc., priority 2014, published 2018)

What was measured:
[1] = intermittent dosing schedule of 480 mg twice a day; cited from earlier work
[2] = test system: CD8 T cells; assay: Phenotyping of gp100-stimulated pMel-1 CD8 T cells by flow cytometry; assay type: cell-based, mouse; settings: for up-regulation of exhaustion marker KLRG-1 in CD8 T cells: after the second and third stimulations; for CD62L expression in CD8 T cells / CD127 expression in CD8 T cells: day 3 and/or day 7 after each stimulation with gp100; for percentage of CD8 T cells with TCM phenotype (CD62LhiCD44hi): pMel-1 splenocytes, gp100 25-33 1 μM, representative example, gated viable CD8+Vβ13+; for percentage of naïve cells (CD62LhiCD44lo) versus non-treated: after 3 days of stimulation; for reservoir of TCM cells after repeated stimulation: day 7 after each stimulation, MK-2206 0.67 μM, Akt 1/2 inhibitor 2.2 μM
Procedure: Tumor antigen-specific CD8 T cells Unfractionated splenocytes from pMel-1 mice were homogenized and stimulated in vitro by gp10025-33 peptide at a 1 μM/ml concentration (day 0). Cells were cultured in RPMI 1640 (Lonza, Allendale, N.J.) supplemented with 10% FBS, penicillin (100 U/mL), streptomycin ([…]), 0.1% β-mercaptoethanol (Life Technologies, Invitrogen, Carlsbad, Calif.) and IL-2 (100 U/ml) (Peprotech, Rocky Hill, N.J.) at 37° C. with 5% CO2. […]. The concentration of the inhibitors was maintained throughout the culture by changing the media every 48-72 hours.
On Days 7, 14 and 21, cells were re-stimulated with gp10025-33 peptide at a 1 μM/ml concentration using feeder cells (irradiated WT splenocytes, 4000 Rads) at 1:1 ratio using the same culture conditions.
To assess the phenotype of the T cells, the cultured cells were harvested and analyzed on days 3, 7, 14 and 21. The cells were stained with APC-Cy7 labeled anti-CD8, FITC labeled anti-Vβ13, PE labeled anti-CD62L, APC labeled anti-CD44, PE-CF594 labeled anti-CD127, APC labeled anti-KLRG-1 in addition to the viability stain 7AAD (BD Biosciences, San Jose, Calif.). The same APC-Cy7 labeled anti-CD8 was used for sorting the cells using the FACS ARIA II (BD Biosciences, San Jose, Calif.).
For proliferation and phenotyping, the analyses were performed on CD8 T cells specific for the gp100 antigen and were gated on viable (7AAD−), Vβ13+CD8+ T cells. For WT and KO cells, the cells were gated on viable (7AAD−), CD8+ T cells.

[3] = test system: CD8 T cells; assay: Proliferation assay (VCT dye dilution / expansion) of gp100-stimulated pMel-1 CD8 T cells; assay type: cell-based, mouse; settings: for expansion of CD8 T cells with further stimulations: re-stimulation days 7, 14, 21, normalized to non-treated control; for proliferation of CD8 T cells (VCT dilution): day 3 after first stimulation
Procedure: Prior to their stimulation (day 0), cells were labeled with 5 μM Violet Cell Trace (VCT) proliferation dye (Life Technologies, Invitrogen, Carlsbad, Calif.) following the manufacturers' instructions. Samples were then evaluated for CD8 T cell expansion via VCT dye dilution (day 3) using an LSRII SORP with HTS Flow Cytometer (BD Biosciences, San Jose, Calif.). The data were analyzed using FlowJo 9 or 10 (Tree Star).

[4] = test system: CD8 T cells; assay: Cytometric bead array of cytokine secretion by re-stimulated pMel-1 CD8 T cells; assay type: cell-based, mouse; settings: for IL-2 secretion: re-stimulated CD8 T cells; for IFNγ secretion with further stimulations / TNF secretion with further stimulations: supernatant after 24 hours, CBA
Procedure: Following the same activation protocol mentioned above, the pMel-1 gp100-specific CD8 T cells were harvested on day 7 after the first and second stimulation. The viable cells (trypan blue negative) were then counted and co-incubated (at 1:1 ratio) with 1 μM/ml gp10025-33 pulsated irradiated splenocytes (4000 Rads) for 24 hours using the same culture conditions. The supernatant was collected and the level of IL-2, TNF and IFN-γ was assessed using the mouse Th1/Th2/Th17 Cytokine Kit BD™ Cytometric Bead Array (CBA) kit. The data was collected using an LSRII SORP with HTS flow cytometer (BD Biosciences, San Jose, Calif.), and analyzed using the FCAP Array Software v3.0 (BD Biosciences, San Jose, Calif.).

[5] = test system: CD8 T cells; assay: Phenotype of anti-CD3/anti-CD28 stimulated CD8 T cells from WT and Akt KO mice; assay type: cell-based, mouse; settings: day 7; anti-CD3 (1 ng/ml) + anti-CD28; MK-2206 0.67 μM, Akt 1/2 inhibitor 2.2 μM
Procedure: The cells were then stimulated using feeder cells (irradiated WT splenocytes, 4000 Rads) at 1:1 ratio (day 0) using TCR stimulation ([…], BD Biosciences, San Jose, Calif.) and co-stimulation (anti-CD28 antibody 2.5 μg/ml BD Biosciences, San Jose, Calif.) in the presence of 100 U/ml IL-2 (Peprotech, Rocky Hill, N.J.). […] Cells were cultured in the same conditions described above. To assess the phenotype of the T cells, the cultured cells were harvested and analyzed on days 3, 7, 14 and 21. The cells were stained with APC-Cy7 labeled anti-CD8, FITC labeled anti-Vβ13, PE labeled anti-CD62L, APC labeled anti-CD44, PE-CF594 labeled anti-CD127, APC labeled anti-KLRG-1 in addition to the viability stain 7AAD (BD Biosciences, San Jose, Calif.). The same APC-Cy7 labeled anti-CD8 was used for sorting the cells using the FACS ARIA II (BD Biosciences, San Jose, Calif.). For proliferation and phenotyping, the analyses were performed on CD8 T cells specific for the gp100 antigen and were gated on viable (7AAD−), Vβ13+CD8+ T cells. For WT and KO cells, the cells were gated on viable (7AAD−), CD8+ T cells.

[6] = cited from earlier work
[7] = test system: 250 other protein kinases; settings: cited from earlier work

Row | SMILES | up-regulation of exhaustion marker KLRG-1 in CD8 T cells [2] | CD62L expression in CD8 T cells [2] | CD127 expression in CD8 T cells [2] | percentage of CD8 T cells with TCM phenotype (CD62LhiCD44hi) [2] | expansion of CD8 T cells with further stimulations [3] | IL-2 secretion [4] | IFNγ secretion with further stimulations [4] | TNF secretion with further stimulations [4] | percentage of naïve cells (CD62LhiCD44lo) versus non-treated [2] | reservoir of TCM cells after repeated stimulation [2] | proliferation of CD8 T cells (VCT dilution) [3] | TCM cells in CD8 T cells from Akt1 KO mice [5] | TCM cells in CD8 T cells from Akt2 KO mice [5] | TCM cells in CD8 T cells from Akt3 KO mice [5] | phenotype of CD8 T cells from WT mice [5] | also measured
1 | NC1(C(=O)N[C@@H](CCO)c2ccc(Cl)cc2)CCN(c2ncnc3[nH]ccc23)CC1 [AZD5363] | inhibits the up-regulation | maintains a high level | maintains a high level | 91% | enhanced the proliferation |  |  |  |  |  |  |  |  |  |  | tolerability [1]: generally well tolerated
2 | O.O=C(O)C(F)(F)F.O=c1[nH]c2ccccc2n1C1CCN(Cc2ccc(-c3nc4cc5[nH]cnc5cc4nc3-c3ccccc3)cc2)CC1 [Akt 1/2 inhibitor, 1,3-Dihydro-1-(1-((4-(6-phenyl-1H-imidazo[4,5-g]quinoxalin-7-yl)phenyl)methyl)-4-piperidinyl)-2H-benzimidazol-2-one trifluoroacetate salt hydrate] | mitigates the up-regulation | maintains a high level | maintains a high level | 76% | significantly enhanced | high secretion levels | preserved high levels | preserved high levels | higher percentage | a high percentage was preserved | inhibited in a dose-dependent manner | more TCM cells | maintains a significantly higher percentage of TCM cells | maintains a significantly higher percentage of TCM cells | consist mainly of TCM cells | 
3 | NC1(c2ccc(-c3nc4ccn5c(=O)[nH]nc5c4cc3-c3ccccc3)cc2)CCC1 [MK-2206] | inhibits the up-regulation | maintains a high level | maintains high levels | 65% | expand at a significantly high rate | significantly higher levels | maintain their ability to secrete IFNγ | significantly higher levels | higher percentage | a high percentage was preserved | inhibited in a dose-dependent manner | more TCM cells | maintains a significantly higher percentage of TCM cells | maintains a significantly higher percentage of TCM cells | consist mainly of TCM cells | dose-limiting toxicities ([6]; 30, 60, 75 or 90 mg on alternate days): skin rash and stomatitis; MTD ([6]; oral, alternate days, patients with advanced solid tumors): 60 mg; inhibitory activities against 250 other protein kinases [7]: no inhibitory activities; IFN-γ production after the second stimulation versus non-treated ([4]; 24 hours after re-stimulation): high and comparable levels; IFN-γ secretion after the third stimulation versus non-treated ([4]; 24 hours after re-stimulation): maintained at a significantly higher level; TNF production after the second stimulation versus non-treated ([4]; 24 hours after re-stimulation): high and comparable levels; TNF secretion after the third stimulation versus non-treated ([4]; 24 hours after re-stimulation): maintained at a significantly higher level
